ChEMBL document CHEMBL1201862, “PubChem BioAssay data set” (2004)
The source made the active and inactive calls.

Columns and labels:
HeLa = assay: viability loss in HeLa cells – cell-based, ATP luminescence, cherry-pick samples, cytotoxicity control, dose response (AID 687004); format: functional; conditions: Homo sapiens
[1] = target: T1, Beta-2 adrenergic receptor (Homo sapiens, UniProt P07550); assay: ADRB2 activation measured by internalization – cell-based, FAP fluorogen, flow cytometry, cherry pick 1, dose response (AID 588763); format: functional
[2] = target: Voltage-dependent T-type calcium channel subunit alpha-1H (Homo sapiens, UniProt O95180); format: functional;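 note: channel activity triggered by adding a high calcium stimulation buffer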
[3] = target: T1, Beta-2 adrenergic receptor; assay: Dose response for HTS for Beta-2AR agonists via FAP method from Powderset3.; format: functional
Cytochrome P450 3A4 = Cytochrome P450 3A4 (Homo sapiens, UniProt P08684);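 note: CYP3A4 tested as one member of a cytochrome P450 panel screen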
[4] = target: Long-chain-fatty-acid--AMP ligase FadD28 (Mycobacterium tuberculosis, UniProt P9WQ59); assay: Fluorescence polarization aasay to screen for inhibitors that compete for the binding of FadD28 to a bisubstrate Measured in Biochemical System Using Plate Reader - 2147-01_Inhibitor_Dose_CherryPick_Activity.; format: functional, Mycobacterium tuberculosis H37Rv
H4 = assay: Luminescence Cell-Based Dose Response HTS to Identify Activators of 5'UTR Stem-Loop Driven Prion Protein mRNA Translation in H4 Neuroglioblastoma Cells. [Related pubchem assays: 1829 (Project Summary), 1814 (Primary HTS)]; format: functional; conditions: Homo sapiens
[5] = Luminescence Cell-Based Dose Response HTS to Identify Activators of Luciferase Translation or Activity in H4 […] Cells. [Related pubchem assays: 1829 (Project Summary), 1814 (Primary HTS)]; format: functional
[6] = Luminescence Cell-Based Dose Retest to Confirm Activators of 5'UTR Stem-Loop Driven Alpha-Synuclein mRNA Translation in H4 Neuroglioblastoma Cells. [Related pubchem assays (depositor defined):AID1813, AID1829]; format: functional
[7] = Luminescence Cell-Based Dose Response HTS to Identify Activators of 5'UTR Stem-Loop Driven Prion Protein mRNA Translation in H4-C Neuroglioblastoma Cells. [Related pubchem assays: 1829 (Project Summary), 1814 (Primary HTS)]; format: functional
[8] = Luminescence Cell-Based Dose Response HTS to Identify Activators of Luciferase Translation or Activity in H4-C Neuroglioblastoma Cells. [Related pubchem assays: 1829 (Project Summary), 1814 (Primary HTS)]; format: functional
[9] = Luminescence Cell-Based Dose Confirmation HTS to Identify Activators of 5'UTR Stem-Loop Driven Alpha-Synuclein mRNA Translation in H4 Neuroglioblastoma Cells. [Related pubchem assays: 1829 (Project Summary), 1814 (Primary HTS)]; format: functional
[10] = viability loss in HepG2 hepatoma cells – cell-based, cherry-picks, set 5, cytotoxicity control, dose response (AID 1053118); format: functional
[11] = viability loss in HeLa cells – cytotoxicity control for MgcRacGAP inhibitor project, dose response (AID 624300); format: functional
[12] = HGIII-sPLA2 enzyme inhibition potency – biochemical, QFRET, IC50, dose response (AID 743457);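 note: green fluorescence rise as the enzyme cleaves BODIPY PC-A2 in liposomes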
[13] = target: T2, Histone-lysine N-methyltransferase NSD2 (Homo sapiens, UniProt O96028); format: biochemical
T2 sequence (O96028 whole entry): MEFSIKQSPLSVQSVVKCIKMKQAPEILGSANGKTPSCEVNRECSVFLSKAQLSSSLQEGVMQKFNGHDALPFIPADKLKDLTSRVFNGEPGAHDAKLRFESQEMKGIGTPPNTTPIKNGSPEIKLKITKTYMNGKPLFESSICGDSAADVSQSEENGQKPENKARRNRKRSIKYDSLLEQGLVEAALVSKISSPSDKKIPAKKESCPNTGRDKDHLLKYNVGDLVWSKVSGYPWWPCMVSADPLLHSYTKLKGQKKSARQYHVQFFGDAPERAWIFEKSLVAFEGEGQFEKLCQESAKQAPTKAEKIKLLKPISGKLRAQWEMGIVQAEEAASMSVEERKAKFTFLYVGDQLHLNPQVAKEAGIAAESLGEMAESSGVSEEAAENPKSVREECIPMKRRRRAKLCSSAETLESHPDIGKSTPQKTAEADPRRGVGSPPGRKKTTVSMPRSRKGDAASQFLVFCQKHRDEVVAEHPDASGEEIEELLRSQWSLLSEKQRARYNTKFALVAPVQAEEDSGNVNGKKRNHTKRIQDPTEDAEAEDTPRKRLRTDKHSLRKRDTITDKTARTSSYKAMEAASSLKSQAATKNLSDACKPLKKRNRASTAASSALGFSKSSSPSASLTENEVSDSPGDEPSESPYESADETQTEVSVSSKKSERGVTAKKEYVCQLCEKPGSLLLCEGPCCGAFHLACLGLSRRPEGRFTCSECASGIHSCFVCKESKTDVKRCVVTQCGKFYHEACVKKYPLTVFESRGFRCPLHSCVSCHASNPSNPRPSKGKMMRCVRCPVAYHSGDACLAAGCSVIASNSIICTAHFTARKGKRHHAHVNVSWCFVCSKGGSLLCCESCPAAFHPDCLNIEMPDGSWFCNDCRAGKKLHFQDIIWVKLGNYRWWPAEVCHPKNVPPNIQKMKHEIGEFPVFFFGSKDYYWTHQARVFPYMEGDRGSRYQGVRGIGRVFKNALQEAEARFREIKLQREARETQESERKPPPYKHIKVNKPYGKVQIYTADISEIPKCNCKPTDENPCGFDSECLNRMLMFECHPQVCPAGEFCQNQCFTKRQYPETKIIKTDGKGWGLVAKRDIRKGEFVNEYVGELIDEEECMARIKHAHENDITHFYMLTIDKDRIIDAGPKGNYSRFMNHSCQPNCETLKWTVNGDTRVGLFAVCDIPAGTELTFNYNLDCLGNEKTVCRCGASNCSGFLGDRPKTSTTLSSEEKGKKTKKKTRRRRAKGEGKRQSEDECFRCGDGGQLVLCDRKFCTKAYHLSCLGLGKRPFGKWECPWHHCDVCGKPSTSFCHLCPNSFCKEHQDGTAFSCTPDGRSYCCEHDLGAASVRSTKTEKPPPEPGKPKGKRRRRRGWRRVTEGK

[14] = target: Arf-GAP with SH3 domain, ANK repeat and PH domain-containing protein 1 (Homo sapiens, UniProt Q9ULH1); format: functional;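 note: biochemical fluorescence polarization dose–response screen measuring inhibition of ASAP1; ASAP1 GAP domain stimulating GTP hydrolysis by truncated human ARF1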
[15] = target: T3, Rac GTPase-activating protein 1 (Homo sapiens, UniProt Q9H0H5); assay: blockers of MgcRacGAP-driven Rac1 GTP hydrolysis – biochemical, ADP Hunter fluorescence, primary and confirmatory, confirmation (AID 624330); format: functional
T3 sequence (Q9H0H5 whole entry): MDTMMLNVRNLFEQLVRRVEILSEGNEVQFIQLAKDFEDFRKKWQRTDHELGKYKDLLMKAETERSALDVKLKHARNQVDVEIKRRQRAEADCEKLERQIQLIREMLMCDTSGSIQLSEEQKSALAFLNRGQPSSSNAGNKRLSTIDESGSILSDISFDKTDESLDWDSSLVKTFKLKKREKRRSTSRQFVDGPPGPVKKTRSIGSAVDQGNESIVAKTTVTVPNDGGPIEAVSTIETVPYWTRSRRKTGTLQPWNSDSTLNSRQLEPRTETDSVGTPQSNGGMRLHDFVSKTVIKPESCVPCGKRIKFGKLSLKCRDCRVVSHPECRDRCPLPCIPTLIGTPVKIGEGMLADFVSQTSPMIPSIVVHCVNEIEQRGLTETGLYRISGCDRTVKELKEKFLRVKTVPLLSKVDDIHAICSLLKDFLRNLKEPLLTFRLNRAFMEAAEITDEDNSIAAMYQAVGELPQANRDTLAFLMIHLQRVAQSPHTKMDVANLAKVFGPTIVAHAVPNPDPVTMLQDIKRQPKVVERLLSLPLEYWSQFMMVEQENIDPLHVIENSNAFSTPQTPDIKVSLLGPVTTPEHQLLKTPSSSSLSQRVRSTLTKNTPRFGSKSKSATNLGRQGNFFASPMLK

[16] = HEK293T viability loss – cell-based, ATP luminescence, dry powder, Set6, cytotoxicity control, dose response (AID 743142); format: functional; conditions: HEK293
[17] = target: Scavenger receptor class B member 1 (Mus musculus, UniProt Q61009); assay: blockers of DiI-HDL lipid transfer via SR-BI – cell-based, ldlA[mSR-BI] CHO, DiI fluorescence, dry powder, set 10, dose response (AID 624029); format: functional
cells [18] = format: functional, cell-based; conditions: HEK-CNG
HEK293 [19] = assay: cells; conditions: Homo sapiens
HEK293 [20] = assay: cells; conditions: Homo sapiens; remark: listed apart in the source
Galanin receptor type 3 = Galanin receptor type 3 (Homo sapiens, UniProt O60755); assay: Fluorescence-based cell-based primary high throughput dose response assay to identify antagonists of the Galanin Receptor 3 (GalR3).; format: functional
Albumin = Albumin (Bos taurus, UniProt P02769); assay: Counterscreen for inhibitors of T-cell receptor (TCR)-CD3 interaction: Fluorescence-based biochemical high throughput dose response assay to identify inhibitors of T-cell receptor (TCR)-CD3 interaction using a TAMRA-labeled BSA probe.; format: functional
Insulin-degrading enzyme [21] = target: T4, Insulin-degrading enzyme (Homo sapiens, UniProt P14735); assay: cellular IDE activation of Abeta substrate cleavage – fluorescence polarization, HEK cells, dose response (AID 588439); format: functional, cell-based
T4 sequence (P14735 whole entry): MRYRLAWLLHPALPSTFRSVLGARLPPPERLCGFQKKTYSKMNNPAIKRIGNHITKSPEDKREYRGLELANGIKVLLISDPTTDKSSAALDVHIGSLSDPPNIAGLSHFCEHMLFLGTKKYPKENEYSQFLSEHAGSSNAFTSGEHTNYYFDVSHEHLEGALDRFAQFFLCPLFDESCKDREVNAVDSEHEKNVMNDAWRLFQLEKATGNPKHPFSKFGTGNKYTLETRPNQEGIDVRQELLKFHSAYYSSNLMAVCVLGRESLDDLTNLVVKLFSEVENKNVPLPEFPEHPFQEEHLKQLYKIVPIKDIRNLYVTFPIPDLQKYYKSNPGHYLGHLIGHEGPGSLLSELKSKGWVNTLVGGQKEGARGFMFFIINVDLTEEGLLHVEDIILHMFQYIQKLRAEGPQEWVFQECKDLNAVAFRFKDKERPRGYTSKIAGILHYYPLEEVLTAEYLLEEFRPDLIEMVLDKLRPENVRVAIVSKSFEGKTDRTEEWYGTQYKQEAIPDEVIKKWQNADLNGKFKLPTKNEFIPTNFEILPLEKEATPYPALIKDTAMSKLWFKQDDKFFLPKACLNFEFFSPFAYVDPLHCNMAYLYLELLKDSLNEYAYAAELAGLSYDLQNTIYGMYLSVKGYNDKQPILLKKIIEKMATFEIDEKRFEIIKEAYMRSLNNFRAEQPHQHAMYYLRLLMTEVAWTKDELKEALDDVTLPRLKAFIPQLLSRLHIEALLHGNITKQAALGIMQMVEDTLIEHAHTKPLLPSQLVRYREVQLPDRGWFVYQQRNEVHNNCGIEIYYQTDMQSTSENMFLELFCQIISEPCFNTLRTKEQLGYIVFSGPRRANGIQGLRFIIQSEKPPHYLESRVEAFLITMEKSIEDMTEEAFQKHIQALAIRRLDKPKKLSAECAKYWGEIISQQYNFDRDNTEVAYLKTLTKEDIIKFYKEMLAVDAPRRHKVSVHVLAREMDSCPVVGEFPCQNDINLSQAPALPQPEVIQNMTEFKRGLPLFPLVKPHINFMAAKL

Beta-lactamase [22] = target: Beta-lactamase (Pseudomonas aeruginosa, UniProt Q79MP6);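 note: biochemical dose-response test of metallo-beta-lactamase enzyme inhibition, read out by epi-absorbance; purified recombinant IMP-1 metallo-beta-lactamase with nitrocefin as substrate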
Insulin-degrading enzyme [23] = target: T4, Insulin-degrading enzyme; assay: recombinant IDE activation, cell-free – biochemical, fluorescence polarization, counter-screen for IDE activator project, dose response (AID 588681)
HEK293 [24] = assay: optical interference in Abeta FP readout, dose response, artefact control for IDE activator project, biochemical, fluorescence polarization (AID 588442); format: functional, cell-based; conditions: Homo sapiens
HEK293 [25] = assay: membrane integrity loss in HEK cells – cell-based, fluorescence, cytotoxicity control for IDE activator project, dose response (AID 588440); format: functional; conditions: Homo sapiens;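 note: cytotoxicity by LDH release measuring loss of membrane integrity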
Beta-lactamase [26] = target: Beta-lactamase (Salmonella choleraesuis (strain SC-B67), UniProt Q5J463)
cells [27] = format: functional, cell-based
[28] = target: Nuclear receptor subfamily 0 group B member 1 (Homo sapiens, UniProt P51843); format: functional, cell-based;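 note: HEK293T cells transfected with SF-1 and DAX-1 plus StAR promoter luciferase reporter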

T1 sequence (P07550 whole entry): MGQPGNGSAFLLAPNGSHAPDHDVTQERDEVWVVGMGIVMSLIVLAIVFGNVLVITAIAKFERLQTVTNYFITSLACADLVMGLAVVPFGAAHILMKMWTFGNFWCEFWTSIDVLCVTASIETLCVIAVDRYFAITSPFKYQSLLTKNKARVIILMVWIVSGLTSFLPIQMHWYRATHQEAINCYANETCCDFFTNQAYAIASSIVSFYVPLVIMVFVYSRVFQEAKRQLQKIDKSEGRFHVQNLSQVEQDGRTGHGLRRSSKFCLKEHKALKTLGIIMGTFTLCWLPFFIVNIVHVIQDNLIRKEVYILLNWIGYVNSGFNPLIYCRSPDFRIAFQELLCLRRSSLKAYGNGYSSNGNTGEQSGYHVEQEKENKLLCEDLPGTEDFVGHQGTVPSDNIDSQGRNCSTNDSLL
Sequence of Scavenger receptor class B member 1 (Q61009 whole entry): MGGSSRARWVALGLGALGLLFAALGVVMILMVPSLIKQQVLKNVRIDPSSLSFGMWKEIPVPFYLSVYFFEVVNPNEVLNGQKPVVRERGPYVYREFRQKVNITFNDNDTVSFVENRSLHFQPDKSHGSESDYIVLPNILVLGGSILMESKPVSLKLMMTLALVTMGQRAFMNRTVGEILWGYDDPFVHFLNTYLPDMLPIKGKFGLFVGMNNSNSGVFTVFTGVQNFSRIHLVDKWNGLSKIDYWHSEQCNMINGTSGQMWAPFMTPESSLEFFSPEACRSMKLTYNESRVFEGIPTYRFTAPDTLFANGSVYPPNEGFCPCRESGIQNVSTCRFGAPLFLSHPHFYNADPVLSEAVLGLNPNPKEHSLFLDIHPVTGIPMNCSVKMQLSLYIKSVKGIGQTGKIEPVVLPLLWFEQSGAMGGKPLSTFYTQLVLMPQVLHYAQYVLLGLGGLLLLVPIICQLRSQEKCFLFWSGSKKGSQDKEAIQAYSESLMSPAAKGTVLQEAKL
Sequence of Long-chain-fatty-acid--AMP ligase FadD28 (P9WQ59 whole entry): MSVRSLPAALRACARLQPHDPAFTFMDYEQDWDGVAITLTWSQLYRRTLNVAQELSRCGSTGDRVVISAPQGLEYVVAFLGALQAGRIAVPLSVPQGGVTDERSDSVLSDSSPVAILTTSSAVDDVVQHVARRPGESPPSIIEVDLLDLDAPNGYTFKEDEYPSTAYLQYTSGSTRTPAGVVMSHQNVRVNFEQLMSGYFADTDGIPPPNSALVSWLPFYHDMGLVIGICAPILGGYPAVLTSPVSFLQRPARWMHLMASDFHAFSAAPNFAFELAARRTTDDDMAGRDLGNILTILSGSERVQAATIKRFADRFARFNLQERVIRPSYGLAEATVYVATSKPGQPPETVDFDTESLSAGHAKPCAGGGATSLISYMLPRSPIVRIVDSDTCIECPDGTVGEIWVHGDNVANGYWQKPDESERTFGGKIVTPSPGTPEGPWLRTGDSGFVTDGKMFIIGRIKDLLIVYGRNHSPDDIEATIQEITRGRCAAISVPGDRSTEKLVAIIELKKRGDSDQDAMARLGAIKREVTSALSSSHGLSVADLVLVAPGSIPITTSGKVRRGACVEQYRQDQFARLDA
Sequence of Galanin receptor type 3 (O60755 whole entry): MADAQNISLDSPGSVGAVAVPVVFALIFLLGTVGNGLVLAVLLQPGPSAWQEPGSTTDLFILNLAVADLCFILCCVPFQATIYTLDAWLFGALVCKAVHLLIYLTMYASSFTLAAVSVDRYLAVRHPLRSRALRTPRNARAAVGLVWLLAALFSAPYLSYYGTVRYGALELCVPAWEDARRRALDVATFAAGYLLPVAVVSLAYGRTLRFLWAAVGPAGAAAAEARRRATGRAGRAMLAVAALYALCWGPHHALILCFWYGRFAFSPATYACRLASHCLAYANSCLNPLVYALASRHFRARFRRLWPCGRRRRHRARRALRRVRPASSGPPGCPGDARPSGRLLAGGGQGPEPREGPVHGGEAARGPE
Sequence of Albumin (P02769 whole entry): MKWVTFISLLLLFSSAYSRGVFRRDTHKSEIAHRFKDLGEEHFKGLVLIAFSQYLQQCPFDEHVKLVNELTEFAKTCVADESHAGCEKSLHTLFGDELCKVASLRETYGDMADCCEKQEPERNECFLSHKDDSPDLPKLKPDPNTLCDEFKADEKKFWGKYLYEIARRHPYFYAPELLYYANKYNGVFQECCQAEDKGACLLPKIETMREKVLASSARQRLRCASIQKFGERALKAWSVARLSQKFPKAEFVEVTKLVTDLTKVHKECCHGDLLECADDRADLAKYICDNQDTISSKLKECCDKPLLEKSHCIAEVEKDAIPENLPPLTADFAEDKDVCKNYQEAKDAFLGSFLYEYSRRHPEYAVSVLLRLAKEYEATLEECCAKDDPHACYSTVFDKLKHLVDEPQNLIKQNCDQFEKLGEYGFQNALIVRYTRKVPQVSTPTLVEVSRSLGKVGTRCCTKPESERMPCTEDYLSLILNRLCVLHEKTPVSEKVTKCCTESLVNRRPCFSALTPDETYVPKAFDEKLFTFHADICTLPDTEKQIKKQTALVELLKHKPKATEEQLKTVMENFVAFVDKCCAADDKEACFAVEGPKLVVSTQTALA
Sequence of Beta-lactamase (Pseudomonas aeruginosa, UniProt Q79MP6) (Q79MP6 whole entry): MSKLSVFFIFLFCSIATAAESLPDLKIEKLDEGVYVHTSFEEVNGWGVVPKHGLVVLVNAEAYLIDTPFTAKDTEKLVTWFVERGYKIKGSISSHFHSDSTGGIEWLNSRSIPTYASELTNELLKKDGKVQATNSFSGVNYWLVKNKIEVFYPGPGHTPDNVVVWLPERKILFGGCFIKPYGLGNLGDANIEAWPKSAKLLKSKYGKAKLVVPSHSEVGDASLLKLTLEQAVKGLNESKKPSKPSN
Sequence of Voltage-dependent T-type calcium channel subunit alpha-1H (O95180 whole entry): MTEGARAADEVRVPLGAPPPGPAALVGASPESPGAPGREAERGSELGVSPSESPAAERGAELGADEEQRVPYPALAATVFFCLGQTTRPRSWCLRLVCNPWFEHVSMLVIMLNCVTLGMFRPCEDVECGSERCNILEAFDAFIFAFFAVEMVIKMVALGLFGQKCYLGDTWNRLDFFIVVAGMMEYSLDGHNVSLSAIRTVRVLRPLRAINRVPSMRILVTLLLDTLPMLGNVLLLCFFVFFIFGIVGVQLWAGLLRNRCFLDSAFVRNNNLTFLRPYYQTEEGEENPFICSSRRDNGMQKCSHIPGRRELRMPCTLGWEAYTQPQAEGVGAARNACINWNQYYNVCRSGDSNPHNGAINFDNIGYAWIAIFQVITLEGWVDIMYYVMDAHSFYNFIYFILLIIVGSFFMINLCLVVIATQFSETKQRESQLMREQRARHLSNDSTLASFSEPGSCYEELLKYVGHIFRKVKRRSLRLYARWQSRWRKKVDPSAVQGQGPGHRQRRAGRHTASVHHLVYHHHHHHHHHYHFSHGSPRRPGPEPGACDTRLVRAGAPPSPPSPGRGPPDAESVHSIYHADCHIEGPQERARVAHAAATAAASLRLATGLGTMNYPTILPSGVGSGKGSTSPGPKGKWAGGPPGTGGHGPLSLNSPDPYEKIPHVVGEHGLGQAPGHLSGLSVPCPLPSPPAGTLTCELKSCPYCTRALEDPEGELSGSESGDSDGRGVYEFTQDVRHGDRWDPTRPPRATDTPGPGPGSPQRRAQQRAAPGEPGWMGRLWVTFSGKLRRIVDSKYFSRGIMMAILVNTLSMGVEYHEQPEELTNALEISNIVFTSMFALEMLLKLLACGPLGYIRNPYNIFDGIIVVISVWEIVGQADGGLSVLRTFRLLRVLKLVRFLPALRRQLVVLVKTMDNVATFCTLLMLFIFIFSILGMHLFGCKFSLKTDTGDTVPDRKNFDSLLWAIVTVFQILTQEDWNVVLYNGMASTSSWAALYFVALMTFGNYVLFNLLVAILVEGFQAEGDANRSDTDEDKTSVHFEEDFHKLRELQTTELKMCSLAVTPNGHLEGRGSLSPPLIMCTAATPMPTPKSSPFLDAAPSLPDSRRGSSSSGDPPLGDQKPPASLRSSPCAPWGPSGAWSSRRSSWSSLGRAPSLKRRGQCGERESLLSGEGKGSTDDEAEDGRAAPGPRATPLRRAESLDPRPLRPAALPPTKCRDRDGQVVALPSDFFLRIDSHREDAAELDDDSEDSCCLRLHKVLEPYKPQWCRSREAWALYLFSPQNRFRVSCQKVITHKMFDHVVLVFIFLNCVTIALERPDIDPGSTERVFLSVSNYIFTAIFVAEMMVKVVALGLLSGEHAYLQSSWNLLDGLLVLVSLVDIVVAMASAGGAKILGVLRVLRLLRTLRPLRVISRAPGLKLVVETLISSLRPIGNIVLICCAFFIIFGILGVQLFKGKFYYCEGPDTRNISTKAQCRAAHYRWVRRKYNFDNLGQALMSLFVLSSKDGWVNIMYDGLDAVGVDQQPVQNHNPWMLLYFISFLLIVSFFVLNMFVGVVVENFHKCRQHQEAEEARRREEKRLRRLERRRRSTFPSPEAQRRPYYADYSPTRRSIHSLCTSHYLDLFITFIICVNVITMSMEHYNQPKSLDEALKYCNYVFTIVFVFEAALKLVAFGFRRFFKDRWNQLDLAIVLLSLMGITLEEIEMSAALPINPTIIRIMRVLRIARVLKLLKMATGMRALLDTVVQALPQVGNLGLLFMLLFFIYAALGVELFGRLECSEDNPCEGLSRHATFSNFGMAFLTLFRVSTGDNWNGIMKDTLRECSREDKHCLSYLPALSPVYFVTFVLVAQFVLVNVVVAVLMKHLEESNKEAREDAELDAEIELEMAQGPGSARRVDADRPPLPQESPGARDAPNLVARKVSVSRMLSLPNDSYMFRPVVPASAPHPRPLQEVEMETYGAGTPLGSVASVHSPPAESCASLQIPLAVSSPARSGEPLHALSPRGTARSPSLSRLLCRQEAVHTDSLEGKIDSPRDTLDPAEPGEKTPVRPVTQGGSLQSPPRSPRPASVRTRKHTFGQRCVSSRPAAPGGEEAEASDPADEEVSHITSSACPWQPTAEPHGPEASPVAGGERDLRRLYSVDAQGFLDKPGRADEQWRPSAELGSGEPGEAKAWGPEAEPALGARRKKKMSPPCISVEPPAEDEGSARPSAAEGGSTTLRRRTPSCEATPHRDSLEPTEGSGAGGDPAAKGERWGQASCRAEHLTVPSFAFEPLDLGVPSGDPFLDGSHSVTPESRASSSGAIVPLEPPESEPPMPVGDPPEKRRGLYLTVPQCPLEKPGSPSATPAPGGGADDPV

C[C@@H]1CN([C@@H](C)CO)C(=O)Cc2cc(NC(=O)Nc3cccc4ccccc34)ccc2O[C@@H]1CN(C)S(=O)(=O)c1cccs1
AC50 (HeLa): 32.3 µM (active)

CN(Cc1ccccc1)S(=O)(=O)c1ccc(NS(=O)(=O)Cc2ccccc2)cc1
EC50 [1]: 1.25 µM (active) | EC50 [2]: 3.46 µM (active) | EC50 [3]: 0.0609 µM (active)

Cc1cccc(NC(=O)Cn2c(=O)oc3ccccc32)c1
AC50 (Cytochrome P450 3A4): 25.1 µM (inconclusive) | AC50 [4]: 5.47 µM (active)

O=c1c2cc(N3CCOCC3)ccc2[nH]c(=S)n1Cc1ccc(Cl)cc1
EC50 (H4): 5.33 µM (active) | EC50 [5]: 66.7 µM (active) | EC50 [6]: 0.719 µM (active) | EC50 [7]: 4.66 µM (active) | EC50 [8]: 2.96 µM (active) | EC50 [9]: 5.35 µM (active) | AC50 [10]: > 52 µM (inactive)

CN(C)c1ccc(/C=C/c2cc[n+](C)c3ccccc23)cc1.[O-][Cl+3]([O-])([O-])[O-]
CC50 [11]: 41.1 µM (active) | IC50 [12]: 28.6 µM (inactive) | AC50 [13]: 11.7 µM (active) | IC50 [14]: 21.4 µM (inactive) | IC50 [15]: 36.1 µM (active)

O=C(CCNC(=O)c1ccc(F)cc1)N[C@@H]1CCCc2ccccc21
AC50 [16]: 16.5 µM (active)

CC(C)NC(=O)Nc1ccc2c(c1)C(=O)N([C@H](C)CO)C[C@@H](C)[C@@H](CN(C)S(=O)(=O)c1ccc(Cl)cc1)O2
AC50 [17]: 39.9 µM (active)

CCc1nc2sc(C#N)c(N)c2c2c1CCCC2
EC50 (cells [18]): > 29.9 µM (inactive) | EC50 (HEK293 [19]): > 59.6 µM (inactive) | EC50 (HEK293 [20]): > 59.6 µM (inactive) | IC50 (Galanin receptor type 3): > 3.32 µM (active)

O=C(NNC(=O)c1cc2ccccc2cc1O)Nc1ccc(F)cc1F
IC50 (Albumin): > 94.1 µM (inactive)

N#CC(C#N)=C1C=C2C=C(N3CCOCC3)CCC2CC1 (stereo not drawn)
EC50 (Insulin-degrading enzyme [21]): > 54.7 µM (inactive) | IC50 (Beta-lactamase [22]): 6.86 µM (active) | EC50 (Insulin-degrading enzyme [23]): > 54.7 µM (inactive) | EC50 (HEK293 [24]): > 54.7 µM (inactive) | IC50 (HEK293 [25]): > 89.1 µM (inactive) | IC50 (Beta-lactamase [26]): 1.49 µM (active)

O=C1c2ccccc2C(=O)N1CCOc1ccccc1Br
IC50 (cells [27]): > 67.5 µM (inactive) | IC50 [28]: > 67.5 µM (inactive)
